Laboratory results taken from PubChem BioAssay (NCI).
Values joined by “and” are separate entries in the source; they are usually repeats but may differ in a detail not shown here. Identical values can stand only once.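 Cells were grown in 96-well plates and exposed to each compound for 48 hours at five concentrations; endpoints were interpolated linearly between bracketing concentrations, or set to the highest concentration if not reached. At the GI50, growth is halved. At the TGI there is no net growth.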

What was measured:
Assay in all cases: NCI tumour cell line growth inhibition, 48 h
NCI-H226 lung = test system: NCI-H226 lung
SK-MEL-2 melanoma = test system: SK-MEL-2 melanoma
HOP-92 NSCLC = test system: HOP-92 NSCLC
DU-145 prostate = test system: DU-145 prostate
OVCAR-4 ovarian = test system: OVCAR-4 ovarian
OVCAR-5 ovarian = test system: OVCAR-5 ovarian
SN12C renal = test system: SN12C renal
M14 melanoma = test system: M14 melanoma
HOP-62 NSCLC = test system: HOP-62 NSCLC
SR leukemia = test system: SR leukemia

Row | SMILES | GI50 (NCI-H226 lung) [µM] | TGI (NCI-H226 lung) | GI50 (SK-MEL-2 melanoma) [µM] | TGI (SK-MEL-2 melanoma) | GI50 (HOP-92 NSCLC) | TGI (HOP-92 NSCLC) | GI50 (DU-145 prostate) [µM] | TGI (DU-145 prostate) [µM] | GI50 (OVCAR-4 ovarian) [µM] | TGI (OVCAR-4 ovarian) [µM] | GI50 (OVCAR-5 ovarian) [µM] | TGI (OVCAR-5 ovarian) [µM] | GI50 (SN12C renal) [µM] | TGI (SN12C renal) [µM] | GI50 (M14 melanoma) [µM] | TGI (M14 melanoma) | GI50 (HOP-62 NSCLC) | TGI (HOP-62 NSCLC) [µM] | GI50 (SR leukemia) [µM] | TGI (SR leukemia) [µM]
1 | N#Cc1c(N)nc(N2CCOCC2)c(C#N)c1-c1ccc(Cl)cc1 | 50.4 | > 100 µM | 18.1 | 56.2 µM | 9 µM | 78.4 µM | 75 | > 100 | 29.8 | > 100 | 80.4 | > 100 | 50.9 | > 100 | 44.6 | > 100 µM | > 100 µM | > 100 | – | –
2 | CCCCCCC#Cc1ccccc1C#CCO | – | – | 18.9 | 39.8 µM | 13.8 µM | 26.7 µM | 17.7 | 36.3 | 24.5 | 81.6 | 38.7 | > 100 | 19.4 | 39.7 | 28.4 | 74.9 µM | 22.4 µM | 48.3 | 39.9 | > 100
3 | CCc1ccccc1N1CCN(C(=O)c2cc(OC)c(OC)c(OC)c2)CC1 | – | 5.6 µM | – | 2.78 µM | – | 12.3 µM | – | 0.715 | – | – | – | > 100 | – | > 100 | – | 2.6 µM | – | > 46.2 | – | > 55.1
4 | CCOC(=O)C1=C(NNC(=O)Cc2ccccc2)CSC1=Nc1ccccc1 | – | > 100 µM | – | > 100 µM | – | > 100 µM | – | – | – | > 100 | – | > 100 | – | > 100 | – | > 100 µM | – | > 100 | – | > 100
5 | CCC(CC)n1cc(C(=O)NC(=O)NCCCCCOC(=O)CCCCCCCCCCC(=O)OCCCCCNC(=O)NC(=O)c2cn(C(CC)CC)c(=O)[nH]c2=O)c(=O)[nH]c1=O | – | > 100 µM | – | – | – | > 100 µM | – | – | – | > 100 | – | > 100 | – | > 100 | – | > 100 µM | – | > 100 | – | > 100
6 | Cc1cccc(NC(=O)c2cc3cc(N=Nc4ccccc4Cl)ccc3oc2=O)c1 | – | 56.2 µM | – | – | – | 76.1 µM | – | – | – | > 100 | – | 56.8 | – | > 100 | – | 85.9 µM | – | > 100 | – | –
7 | Cc1ccc(/C=C2/SC(Nc3nc(-c4nc(NC5=NC(=O)/C(=C\c6ccc(C)cc6)S5)sc4C)c(C)s3)=NC2=O)cc1 | 2.32 | > 30.4 µM | 36.3 | > 50 µM | 17.1 µM | > 47.8 µM | 0.531 | > 9.82 | – | – | 8.05 | > 50 | 0.957 | 18.3 | 0.0642 | 1.21 µM | 0.005 µM | 2.65 | 0.373 | > 50
8 | CC(C)(O)C1CCC(Nc2ccc3ncc(-c4cccc(C(F)(F)F)c4)n3n2)CC1 (stereo not given) | 2.19 | 27 µM | 2.13 | 4.82 µM | – | – | 3.52 | 14.8 | 2.62 | 12.5 | 2.92 | > 100 | 3.17 | 17 | 1.23 | 4.49 µM | 2.37 µM | 11.8 | 1.87 | 11.1
9 | N#C/C(=C1\NN=C(N)C(c2ccc(Cl)cc2)=C1O)c1ccc(Cl)cc1 | – | > 100 µM | – | – | – | > 100 µM | – | – | – | > 100 | – | > 100 | – | > 100 | – | > 100 µM | – | > 100 | – | > 100
10 | C=C1CC2(C[C@@H](c3ccccc3)O[C@@H](c3ccccc3)C2)OC1=O (stereo not given in full) | – | 32 µM | – | 11.3 µM | – | 9.81 µM | – | 21.4 | – | 13.5 | – | 26.9 | – | 9.62 | – | 3.34 µM | – | 28.1 | – | –
11 | O=c1[nH]nc2ccccc2c1Cl | – | 52.8 µM | – | 33.6 µM | – | 12.3 µM | – | – | – | 23.8 | – | 33.9 | – | 34.2 | – | 25.6 µM | – | 40.7 | – | –
12 | COC(C(=O)C(O)C(C)O)C1Cc2cc3cc(OC4CC(OC(C)=O)C(OC5CC(O)C(OC)C(C)O5)C(C)O4)cc(O)c3c(O)c2C(=O)C1OC1CC(OC2CC(OC3CC(C)(O)C(OC(=O)C(C)C)C(C)O3)C(O)C(C)O2)C(O)C(C)O1 (stereo not given) | – | 0.148 µM and 0.0893 µM | 0.0189 | 0.042 µM and 0.0104 µM | 0.0383 µM and 0.00429 µM | 0.288 µM and 0.039 µM | – | 0.569 | – | – | – | – | – | – | – | 0.257 µM and 0.0292 µM | 0.0795 µM and 0.0102 µM and 0.00856 µM | – | – | 0.385
13 | Nc1ccn(CCO)c(=O)n1 | – | > 100 µM | – | > 100 µM | – | > 100 µM | – | – | – | > 100 | – | > 100 | – | > 100 | – | > 100 µM | – | > 100 | – | > 100
14 | CC1CC(c2cccc3c2OCO3)=Nc2ccccc2S1 (stereo not given) | – | > 100 µM | – | > 100 µM | – | > 100 µM | – | – | – | > 100 | – | > 100 | – | > 100 | – | > 100 µM | – | – | – | –
15 | O=C1OC(CC(=O)c2ccc(Cl)cc2Cl)C(Cl)=C1Cl (stereo not given) | – | > 89.5 µM | – | 41.7 µM | – | 39.7 µM | – | – | – | > 58.4 | – | > 62.8 | – | > 31.6 | – | > 91.9 µM | – | > 100 | – | 70.4
16 | CC1CC2C(=O)N(c3ccccc3)C(=O)C2c2c1c1ccccc1n2Cc1ccccc1 (stereo not given) | – | > 100 µM | – | > 100 µM | – | > 100 µM | – | – | – | > 100 | – | > 100 | – | > 100 | – | > 100 µM | – | > 100 | – | > 100
17 | Cc1nn(-c2ccccc2)c2c1CC(=O)Nc1ccccc1-2 | 0.465 | > 100 µM | 0.387 | > 100 µM | – | – | 0.355 | > 100 | – | > 100 | – | > 100 | – | > 100 | 0.188 | > 100 µM | 0.384 µM | > 100 | – | –
18 | OCC(O)C(OC1OC(CO)C(O)C(O)C1O)c1nn(-c2ccccc2)c2nc3cc(Cl)c(Cl)cc3cc12 (stereo not given) | – | – | – | – | – | – | – | – | – | > 100 | – | > 100 | – | > 100 | – | > 100 µM | – | > 100 | – | > 100
19 | C/C(=C\c1ccn(-c2ccc(N)c(F)c2)n1)[C@@H]1C[C@@H]2O[C@]2(C)CCC[C@H](C)[C@H](O)[C@@H](C)C(=O)C(C)(C)[C@@H](O)CC(=O)O1 | 7.99 | > 50 µM | 0.0321 | > 50 µM | 0.0119 µM | > 44.4 µM | 0.0155 | 0.121 | 0.0964 | > 50 | 0.0472 | > 50 | 0.0389 | > 50 | – | – | 0.0245 µM | > 50 | 0.00915 | > 50
